# Assay results: patent publication US20040014768A1, “Chromenone derivatives and their use for treating diseases in conjunction with 5-hta1receptors and/or dopamine d2 receptors” (priority 2000, published 2004)
row,melting point [°C],SMILES
1,193 to 195,"COc1cc2oc(=O)c(C)c(C)c2cc1OCCCN1CCN(c2cccc3[nH]ccc23)CC1 [Example 5, 6-{3-[4-(1H-indol-4-yl)piperazin-1-yl]propoxy}-7-methoxy-3,4-dimethyl-chromen-2-one]"
2,225 to 228,"COc1cc2oc(=O)c(C)c(C)c2cc1OCCCN1CCN(c2cccc3cccnc23)CC1 [Example 5, 7-methoxy-3,4-dimethyl-6-[3-(4-quinolin-8-ylpiperazin-1-yl)propoxy]-chromen-2-one]"

# Further lines, the compound ahead of its results:
row,SMILES,melting point [°C]
1,COc1cc2oc(=O)c(C)c(C)c2cc1OCCN1CCN(c2cccc3[nH]ccc23)CC1.Cl.Cl,231 to 237
2,"COc1cc2oc(=O)c(C)c(C)c2cc1OCCN1CCN(c2cccc3[nH]ccc23)CC1 [Example 3, 6-{2-[4-(1H-indol-4-yl)piperazin-1-yl]ethoxy}-7-methoxy-3,4-dimethylchromen-2-one]",201 to 202
3,"COc1cc2oc(=O)c(C)c(C)c2cc1OCCN1CCN(c2cccc3cccnc23)CC1 [Example 4, 7-methoxy-3,4-dimethyl-6-[2-(4-quinolin-8-ylpiperazin-1-yl)ethoxy]chromen-2-one]",164 to 165
4,"COc1cc2oc(=O)c(C)c(C)c2cc1OCCN1CCN(c2cccc3ccc(C)nc23)CC1 [Example 4, 7-methoxy-3,4-dimethyl-6-{2-[4-(2-methylquinolin-8-yl)piperazin-1-yl]-ethoxy}chromen-2-one]",168 to 170
